Test results taken from US10881679B2, “Application of a phillyrin/phillygeninin composition in preparing a medicine or health care product for alleviating or/and treating viral diseases, and medicine or health care product for treating viral diseases” (priority 2014, dated 2021).
Marks after values point to notes of the source that are not given here.

Tests used:
[1] = test system: sweat secretion of rat paws; assay: Sweat secretion of rat paws (coloring method); assay type: in vivo, Wistar rats; details: 35.0 mg/kg s.c.
Source text: The test is based on a mechanism that distribution of sweat glands is present in footpads of rat paws, the amount of sweat secretion and variation thereof can be observed by using a mechanism that a purple color can be produced by contacting iodine and starch when encountered with sweat.
500 Wistar rats with equal male and female number were used, weighing of 120˜150 g. These rats were randomly divided into 50 groups by weight and gender, i.e., namely 5 groups for the control groups (0.5% methyl cellulose), 5 groups for phillyrin groups, 5 groups for phillygeninin groups, 5 groups for the low, medium and high dose groups (2.5, 5, 10 mg/kg, respectively) of phillyrin/phillygeninin compositions A and B respactively, and 5 groups for the positive drug pilocarpine groups (35 mg/kg). Each group has 10 rats, 10 groups of rates are used for each test, which has 5 time periods (1, 5, 10, 15 and 20 min). The rats were placed into a self-made rat fixation bag, and both hind limbs of the rats were exposed. Dirt on the right paws was gently cleaned away using cotton swabs containing anhydrous alcohol. Pilocarpine solution was administered by subcutaneous injection, the remaining groups were subjected to intragastric administration. At 1 h (30 min for the pilocarpine group) after administration, pre-existing sweat and sweat generated due to struggle on the right paw of each rat in each group was gently wiped away with dry cotton swabs, then the paws were coated with solution A (dissolving 2 g iodine in 100 ml anhydrous alcohol) of Hetian-gaoyuanshi's reagent. After complete dryness, the paws were thinly coated with solution B (uniform mixture of 50 g soluble starch and 100 ml castor oil) of Hetian-gaoyuanshi's reagent. The color and number of dark purple coloring spots (i.e. sweat spots) were carefully observed at 1, 5, 10, 15 and 20 min after the coating of the solution B respectively with magnifying glass. After the test was completed, statistical treatment was performed according to the rank sum test with two-sample comparison, thereby comparing the differences among the various groups.

[2] = test system: sweat gland epithelial cells of rat paws; assay: Sweat secretion of rat paws (histomorphological observation method); assay type: in vivo, Wistar rats; details: 35.0 mg/kg s.c., 30 min after administration
Source text: This test is based on a mechanism that when a rat is in an excited state, in addition to the increase of sweat secretion of sweat glands, the morphology of sweat gland epithelial cells changes accordingly. Under an optical microscope, it can be seen that the sweat gland epithelial cell vacuoles increase in number and expand. Under an electron microscope, such expanded vacuoles appear to be mitochondria in the sweat gland epithelial cell swelling, breakage and fusion and expansion of secretory vesicle. Therefore, through histomorphological observation of sweat gland epithelial tissue of a rat paw, secretory activities of the sweat gland can be known.
300 Wistar rats with equal male and female number, weighing 120˜160 g were used. These rats were randomly divided into 30 groups by weight and gender: control groups (0.5% of methyl cellulose), phillygeninin groups, phillyrin groups, low, medium and high dose groups (2.5, 5, 10 mg/kg) of phillyrin/phillygeninin compositions A and B separately, and positive drug pilocarpine groups (35 mg/kg). Each group has 10 rats, the test is repeated 3 times for each group. Pilocarpine solution was administered by subcutaneous injection, the remaining groups were subjected to intragastric administration. After administration of the 0.5% of methyl cellulose in the control group for one hour, after administration of the pilocarpine in the positive drug group for 30 min, and after administration of the phillyrin, the phillygeninin and the phillyrin/phillygeninin composition for one hour, the right hind limb was instantly cut off at the ankle joint to immediately take down the footpad of the right hind limb and placed into 10% of formaldehyde solution. The footpads were fixed, dehydrated, embedded, sliced and stained with HE by using conventional methods. Changes in sweat gland epithelial cells of the rat paws from each group were observed under an optical microscope, to mainly observe the percentage of vacuolization. The differences among the various groups was performed through X^2 test for statistical analysis. The above test was repeated 3 times. Percentage of vacuolization=(the number of vacuolized sweat glands)/(the number of sweat glands observed)×100%.

[3] = test system: rat fever induced by beer yeast; assay: Rat fever induced by beer yeast (Saccharomyces cerevisiae); assay type: in vivo, Wistar rats; details: 100 mg/kg i.g.
Protocol: Male Wistar rats with a weight of 180˜200 g were used. Normal anal temperature of each rat was measured twice (at a certain interval) with a WSC-411P portable digital thermometer, and a mean of the two measurement values was taken as a normal body temperature of the rat. Then, 300 rats with body temperature at 36.5˜38° C. were selected and randomly divided into 30 groups by weight: model groups (0.5% methyl cellulose), phillyrin/phillygeninin compositions A and B that are divided into low, medium and high dose groups (2.5, 5, 10 mg/kg) respectively, phillyrin groups (13 mg/kg), phillygeninin groups (13 mg/kg), and positive drug paracetamol groups (100 mg/kg). Each group has 10 rates, and the test is repeated 3 times for each group. 10 mL/kg of 10% fresh Saccharomyces cerevisiae suspension was subcutaneously injected to the back of the rats of each group to induce fever. After administration of 10% fresh Saccharomyces cerevisiae suspension for 6.0 h, the phillyrin/phillygeninin composition and the paracetamol positive drug were administered by intragastric administration, and the same volume of 0.5% methyl cellulose is administrated to the model group by intragastric administration. Rectal temperatures were respectively measured at 1, 2, 3 and 4 h after the administration. Changes in the body temperature were observed and difference between the groups was compared by inter-group t test processing through antipyretic percentage. The above test was repeated totally 3 times.

[4] = test system: rabbit fever induced by typhoid and paratyphoid vaccine; assay: Rabbit fever induced by typhoid and paratyphoid vaccine; assay type: in vivo, Japanese big-ear white rabbits; details: 50 mg/kg i.g.
Protocol: Male Japanese big-ear white rabbits with a weight 1.5˜2.0 kg were used. Before the test, WSC-411P portable digital thermometer was used to measure the normal rectal temperature twice (with certain interval for each time), and the average value was taken as the normal body temperature of rabbits. […] Each group has 6 rabbits, and the test was repeated 3 times for each group. Rabbits were fixed into a fixator. The blank control group was intravenously injected with normal saline of 1 ml/kg via the ear margin; The model control group and each drug group were intravenously injected with typhoid and paratyphoid vaccines of 0.8 ml/kg via the ear margin. After the body temperatures of the rabbits increased by 1° C. or more (requiring about 1˜1.5 h, and this test was limited to 1 h), the blank control group and the model group were administered intragastrically with 0.5% carboxymethycellulose of 1 ml/kg, and the drug groups were administered intragastrically with phillyrin/phillygeninin compositions and paracetamol respectively. The rectal temperature was measured after administration for 30, 60, 90, 120, 180 and 240 min to observe the changes in the body temperature, and difference between the groups was compared by inter-group t test processing through antipyretic percentage.

[5] = test system: rat paw swelling induced by carrageenin; assay: Rat paw swelling induced by carrageenin; assay type: in vivo, Wistar rats; details: 100 mg/kg
Protocol: Each group has 10 rats. Rats in each group were all administered by […] through the sublingual vein. Normal volume of the right hind paw of each rat in each group was measured in capillary magnification measurement method. In order to avoid errors, the measurement should be carried out in a fixed position and operated by the same person before and after administration. A mean of the two measurement values was taken as the normal volume of the right hind paw of a rat before administration. […] The difference between the groups was compared by inter-group t test processing through the difference percentage (swelling ratio) of the paw volume before and after the induced rat inflammation. [formula] Results

[6] = 10 min after coating solution B
[7] = 15 min after coating solution B
[8] = 20 min after coating solution B

SMILES: CC[C@@H]1C(=O)OC[C@@H]1Cc1cncn1C [Pilocarpine]
- Animal number of sweat spots of level + ([1]; 1 min after coating solution B): 1 rats
- Animal number of sweat spots of level ++ ([1]; 1 min after coating solution B): 3 rats
- Animal number of sweat spots of level +++ ([1]; 1 min after coating solution B): 1 rats
- Animal number of sweat spots of level ++++ ([1]; 1 min after coating solution B): 5 rats
- Animal number of sweat spots of level − ([1]; 1 min after coating solution B): 0 rats
- Animal number of sweat spots of level + ([1]; 5 min after coating solution B): 1 rats
- Animal number of sweat spots of level ++ ([1]; 5 min after coating solution B): 2 rats
- Animal number of sweat spots of level +++ ([1]; 5 min after coating solution B): 1 rats
- Animal number of sweat spots of level ++++ ([1]; 5 min after coating solution B): 6 rats
- Animal number of sweat spots of level − ([1]; 5 min after coating solution B): 0 rats
- Animal number of sweat spots of level + [1, 6]: 0 rats
- Animal number of sweat spots of level ++ [1, 6]: 2 rats
- Animal number of sweat spots of level +++ [1, 6]: 1 rats
- Animal number of sweat spots of level ++++ [1, 6]: 6 rats
- Animal number of sweat spots of level − [1, 6]: 0 rats
- Animal number of sweat spots of level + [1, 7]: 0 rats
- Animal number of sweat spots of level ++ [1, 7]: 2 rats
- Animal number of sweat spots of level +++ [1, 7]: 1 rats
- Animal number of sweat spots of level ++++ [1, 7]: 6 rats
- Animal number of sweat spots of level − [1, 7]: 0 rats
- Animal number of sweat spots of level + [1, 8]: 0 rats
- Animal number of sweat spots of level ++ [1, 8]: 2 rats
- Animal number of sweat spots of level +++ [1, 8]: 1 rats
- Animal number of sweat spots of level ++++ [1, 8]: 6 rats
- Animal number of sweat spots of level − [1, 8]: 0 rats
- Number of sweat glands of vacuole [2]: 57
- percentage of vacuolization (%) [2]: 27.40*** %

SMILES: CC(=O)Nc1ccc(O)cc1 [Paracetamol]
- Body temperature ([3]; 1 h after administration): 38.66 ± 0.59 °C
- antipyretic percentage (%) ([3]; 1 h after administration): −2.07 ± 0.54 %
- Body temperature ([3]; 2 h after administration): 38.19 ± 0.59 °C
- antipyretic percentage (%) ([3]; 2 h after administration): −3.27 ± 0.77 %
- Body temperature ([3]; 3 h after administration): 37.98 ± 0.19 °C
- antipyretic percentage (%) ([3]; 3 h after administration): −3.80 ± 1.43 %
- Body temperature ([3]; 4 h after administration): 37.84 ± 0.32 °C
- antipyretic percentage (%) ([3]; 4 h after administration): −4.15 ± 1.59 %
- Body temperature ([4]; 30 min after administration): 40.53 ± 0.65 °C
- antipyretic percentage (%) ([4]; 30 min after administration): −1.14 ± 0.56%
- Body temperature ([4]; 60 min after administration): 40.10 ± 0.49 °C
- antipyretic percentage (%) ([4]; 60 min after administration): −2.18 ± 0.17%
- Body temperature ([4]; 90 min after administration): 39.83 ± 0.58 °C
- antipyretic percentage (%) ([4]; 90 min after administration): −2.83 ± 0.15%
- Body temperature ([4]; 120 min after administration): 39.72 ± 0.56 °C
- antipyretic percentage (%) ([4]; 120 min after administration): −3.11 ± 0.20%
- Body temperature ([4]; 180 min after administration): 39.61 ± 0.41 °C
- antipyretic percentage (%) ([4]; 180 min after administration): −3.38 ± 0.22%
- Body temperature ([4]; 240 min after administration): 39.53 ± 0.47 °C
- antipyretic percentage (%) ([4]; 240 min after administration): −3.58 ± 0.38%

SMILES: CC(=O)Oc1ccccc1C(=O)O [Aspirin]
- Swelling percentage (%) ([5]; 15 min after inflammation induction): 8.90 ± 6.70 %
- Swelling percentage (%) ([5]; 30 min after inflammation induction): 15.6 ± 12.2 %
- Swelling percentage (%) ([5]; 60 min after inflammation induction): 20.3 ± 10.9 %
- Swelling percentage (%) ([5]; 120 min after inflammation induction): 21.6 ± 12.1 %
- Swelling percentage (%) ([5]; 180 min after inflammation induction): 26.1 ± 21.1 %
- Swelling percentage (%) ([5]; 240 min after inflammation induction): 26.1 ± 16.3 %
- Swelling percentage (%) ([5]; 300 min after inflammation induction): 34.9 ± 14.6 %
- Swelling percentage (%) ([5]; 360 min after inflammation induction): 31.9 ± 12.2 %
